Consider 38 molecules from patent publication US8575360B2, “Derivatives of 6,7-dihydro-5H-imidazo[1,2-a]imidazole-3-carboxylic acid amides” (Boehringer Ingelheim International GmbH, priority 2009, dated 2013).

For the assay, the target named is T1, LFA-1 (CD18/CD11a) binding to ICAM-1 (Homo sapiens, UniProt P05107+P20701).
T1 construct: followed by purified LFA-1 (in buffer of 50 mM triethylamine, 150 mM NaCl, 1% beta octylglucoside)
T1 sequence (P20701 26-1170): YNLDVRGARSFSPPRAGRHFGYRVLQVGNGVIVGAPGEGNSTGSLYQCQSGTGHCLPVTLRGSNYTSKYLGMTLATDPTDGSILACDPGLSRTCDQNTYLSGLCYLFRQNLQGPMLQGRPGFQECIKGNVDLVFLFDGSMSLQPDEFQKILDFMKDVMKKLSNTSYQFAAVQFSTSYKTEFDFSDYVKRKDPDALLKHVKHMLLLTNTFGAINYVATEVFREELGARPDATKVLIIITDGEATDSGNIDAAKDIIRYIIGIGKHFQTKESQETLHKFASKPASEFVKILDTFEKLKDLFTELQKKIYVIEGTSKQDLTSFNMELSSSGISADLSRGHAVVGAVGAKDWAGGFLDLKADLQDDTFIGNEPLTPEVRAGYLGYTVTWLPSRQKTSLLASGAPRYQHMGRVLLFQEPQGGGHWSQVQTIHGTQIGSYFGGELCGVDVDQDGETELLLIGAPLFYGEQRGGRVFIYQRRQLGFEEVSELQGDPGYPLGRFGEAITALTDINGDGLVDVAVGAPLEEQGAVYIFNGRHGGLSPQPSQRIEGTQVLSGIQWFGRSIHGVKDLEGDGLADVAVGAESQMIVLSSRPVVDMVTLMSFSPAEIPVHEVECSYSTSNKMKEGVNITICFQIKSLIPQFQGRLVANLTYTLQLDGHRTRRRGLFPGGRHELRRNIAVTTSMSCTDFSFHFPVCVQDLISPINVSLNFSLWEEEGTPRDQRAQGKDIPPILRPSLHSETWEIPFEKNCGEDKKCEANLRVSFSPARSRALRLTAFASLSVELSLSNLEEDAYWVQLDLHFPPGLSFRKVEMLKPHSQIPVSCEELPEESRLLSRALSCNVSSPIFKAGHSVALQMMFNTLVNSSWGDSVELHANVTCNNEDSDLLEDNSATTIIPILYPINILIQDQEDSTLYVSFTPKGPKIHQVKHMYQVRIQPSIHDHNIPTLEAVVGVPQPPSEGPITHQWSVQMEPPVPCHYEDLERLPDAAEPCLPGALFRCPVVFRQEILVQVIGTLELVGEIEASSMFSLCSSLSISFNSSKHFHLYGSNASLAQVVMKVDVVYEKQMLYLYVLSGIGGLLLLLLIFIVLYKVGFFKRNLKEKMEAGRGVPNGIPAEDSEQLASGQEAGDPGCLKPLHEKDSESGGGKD
T1 sequence (P05107 23-769 partner): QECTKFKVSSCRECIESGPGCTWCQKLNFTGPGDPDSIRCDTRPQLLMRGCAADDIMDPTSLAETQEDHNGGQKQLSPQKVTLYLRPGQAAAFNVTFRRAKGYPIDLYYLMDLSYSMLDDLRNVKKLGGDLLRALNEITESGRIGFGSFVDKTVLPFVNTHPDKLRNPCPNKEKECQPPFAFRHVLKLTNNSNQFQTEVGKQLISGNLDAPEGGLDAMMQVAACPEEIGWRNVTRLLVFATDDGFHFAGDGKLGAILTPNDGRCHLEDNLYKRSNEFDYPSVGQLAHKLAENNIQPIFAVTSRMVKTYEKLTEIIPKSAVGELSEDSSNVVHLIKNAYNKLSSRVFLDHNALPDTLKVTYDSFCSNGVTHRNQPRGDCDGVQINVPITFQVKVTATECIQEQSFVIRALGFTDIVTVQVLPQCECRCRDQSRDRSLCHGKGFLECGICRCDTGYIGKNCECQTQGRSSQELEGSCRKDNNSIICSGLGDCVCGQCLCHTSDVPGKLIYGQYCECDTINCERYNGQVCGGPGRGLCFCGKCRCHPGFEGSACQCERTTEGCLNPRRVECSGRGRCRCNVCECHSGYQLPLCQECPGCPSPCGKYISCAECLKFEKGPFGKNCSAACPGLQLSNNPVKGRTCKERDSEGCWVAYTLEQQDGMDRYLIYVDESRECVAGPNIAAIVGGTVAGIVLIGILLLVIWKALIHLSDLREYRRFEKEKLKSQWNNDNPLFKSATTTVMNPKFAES
Description: LFA-1/Biotin-sICAM-1 AlphaScreen assay: inhibition of LFA-1 binding to ICAM-1. The settings on record: 37° C. 90 minutes, highest compound concentration 1 μM. The source says:
Assay to Determine Inhibition of LFA-1 Binding to ICAM-1
This assay protocol is designed to study the direct antagonism, by a test compound, of the interaction of ICAM-1 with the Leukointegrin CD18/CD11a (LFA-1).
The LFA-1/Biotin-sICAM-1 molecular assay measures the ability of test compounds to inhibit binding of LFA-1 to Biotinylated-sICAM using AlphaScreen technology (Ref: Wilson, J, Rossi, C P, Carboni, S, Fremaux, C, Perrin, D, Soto, C, Kosco-Vilbois, M, and Scheer, A: A Homogeneous 384-Well High-Throughput Binding Assay for a TNF Receptor Using Alphascreen Technology. J Biomol Screen 2003; 8:522-532) that uses TS2/4(anti-LFA-1)-custom conjugated AlphaLisa acceptor beads and streptavidin-coated donor beads from PerkinElmer. The assay was performed in white OptiPlates-384 in a volume of 60 μL using assay buffer (Dulbecco's PBS containing calcium and magnesium, 2 mM MgCl2, 0.1 mM PMSF, 0.1% BSA, pH 7.1). To each well, Biotin-sICAM was added followed by purified LFA-1 (in buffer of 50 mM triethylamine, 150 mM NaCl, 1% beta octylglucoside, 2 mM MgCl2 neutralized to pH with 1M Tris-HCl, pH 7.5). For compound testing, compound was added in 5 uL to the above in 25 uL. LFA-1 and Biotin-sICAM-1 were used at concentrations that would yield a signal to background ratio of 8-10. The highest concentration of compound was 1 μM in 1% DMSO. Positive controls were wells without compound containing LFA-1, while blanks were wells without both compound and LFA-1. Plates were mixed and incubated at 37° C. for 90 minutes. This was followed by addition of 15 μL/well TS2/4-conjugated acceptor beads diluted in PBS containing 0.1% BSA for a final concentration of 10 μg/mL. The plates were mixed and incubated in the dark for 30 minutes at room temperature followed by addition of 15 μL/well streptavidin-coated donor beads diluted in PBS containing 0.1% BSA at a final concentration of 15 μg/mL. The plates were mixed and incubated in the dark for 60 minutes at room temperature and then read on an EnVision Multilabel Reader using AlphaScreen 384-well OptiPlate protocol.
Background: Alpha assays give light when donor and acceptor beads are brought close together.
Usually IC50 stands for the concentration that inhibits the measured activity by half. For the molecule `Cn1cc(-c2ccc(C3(NC(=O)C4(NC(=O)c5cnc6n5[C@](C)(Cc5ccc(C#N)cc5)C(=O)N6c5cc(Cl)cc(C(F)(F)F)c5)CC4)CC3)nc2)cn1` [Compound 51], the IC50 stood at 1.2 nM. That is a single-digit nanomolar value. `Cc1nn(C)cc1-c1ccc(C2(NC(=O)[C@H](CO)NC(=O)c3cnc4n3[C@](C)(Cc3ccc(C#N)cc3)C(=O)N4c3cc(Cl)c(F)c(Cl)c3)CC2)nc1` [Compound 154] had an IC50 of 0.76 nM. Then `C[C@@]1(Cc2ccc(C#N)cc2)C(=O)N(c2cc(Cl)cc(Cl)c2)c2ncc(C(=O)NC3(C(=O)NC4(c5ccc(-c6cccc(C(=O)O)c6)cn5)CC4)CC3)n21` [Compound 52], with 0.72 nM; and `C[C@@]1(Cc2ccc(C#N)cc2)C(=O)N(c2cc(Cl)c(F)c(Cl)c2)c2ncc(C(=O)NC3(C(=O)NC4(c5ccc(-c6cn[nH]c6)cn5)CC4)CC3)n21` [Compound 11], with 1.2 nM; and `C[C@@]1(Cc2ccc(C#N)cc2)C(=O)N(c2cc(Cl)c(F)c(Cl)c2)c2ncc(C(=O)NC3(C(=O)NC4(c5ccc(-c6ccc7nccn7c6)cn5)CC4)CC3)n21` [Compound 16], with 1 nM. Then `Cc1n[nH]c(C)c1-c1ccc(C2(NC(=O)C3(NC(=O)c4cnc5n4[C@](C)(Cc4ccc(C#N)cc4)C(=O)N5c4cc(Cl)cc(Cl)c4)CC3)CC2)nc1` [Compound 60], with 0.96 nM; and `C[C@@]1(Cc2ccc(C#N)cc2)C(=O)N(c2cc(Cl)c(F)c(Cl)c2)c2ncc(C(=O)NC3(C(=O)NC4(c5ncc(-c6ccc(CO)cc6)cn5)CC4)CC3)n21` [Compound 32], with 1.4 nM; and `C[C@@]1(Cc2ccc(C#N)cc2)C(=O)N(c2cc(Cl)cc(Cl)c2)c2ncc(C(=O)NC3(C(=O)NC4(c5ccc(-c6cccc(O)c6)cn5)CC4)CC3)n21` [Compound 142], with 1.7 nM. The molecule `C[C@@]1(Cc2ccc(C#N)cc2)C(=O)N(c2cc(Cl)cc(Cl)c2)c2ncc(C(=O)NC3(C(=O)NC4(c5ccc(-c6ccc(S(C)(=O)=O)cc6)cn5)CC4)CC3)n21` [Compound 134] displayed an IC50 of 0.64 nM. Next, `C[C@@]1(Cc2ccc(C#N)cc2)C(=O)N(c2cc(Cl)c(F)c(Cl)c2)c2ncc(C(=O)NC3(C(=O)NC4(c5ncc(-c6ccc(O)cc6)cn5)CC4)CC3)n21` [Compound 34]: 1 nM; `C[C@@]1(Cc2ccc(OC(F)(F)F)cc2)C(=O)N(c2cc(Cl)c(F)c(Cl)c2)c2ncc(C(=O)NC3(C(=O)NC4(c5ccc(-c6ccc(=O)[nH]c6)cn5)CC4)CC3)n21` [Compound 108]: 1.1 nM; `C[C@@]1(Cc2ccc(OC(F)(F)F)cc2)C(=O)N(c2cc(Cl)c(F)c(Cl)c2)c2ncc(C(=O)NC3(C(=O)NC4(c5ccc(-c6cn[nH]c6)nn5)CC4)CC3)n21` [Compound 42]: 1.3 nM. Then `C[C@@]1(Cc2ccc(OC(F)(F)F)cc2)C(=O)N(c2cc(Cl)c(F)c(Cl)c2)c2ncc(C(=O)NC3(C(=O)NC4(c5ccc(-c6ccc(N)nc6)cn5)CC4)CC3)n21` [Compound 20], with 1.5 nM; and `CC1(Cc2ccc(C#N)cc2)C(=O)N(c2cc(Cl)c(F)c(Cl)c2)c2ncc(C(=O)NC3(C(=O)NC4(c5ccc(-c6cnn(C7CC7)c6)cn5)CC4)CC3)n21` (centres unmarked) [Compound 38], with 1.7 nM; and `Cc1nn(C)cc1-c1cnc(C2(NC(=O)C3(NC(=O)c4cnc5n4[C@](C)(Cc4ccc(C#N)cc4)C(=O)N5c4cc(Cl)c(F)c(Cl)c4)CC3)CC2)nc1` [Compound 111], with 1.6 nM.

`Cn1cc(-c2ccc(C3(NC(=O)C4(NC(=O)c5cnc6n5[C@](C)(Cc5ccc(Br)cc5)C(=O)N6c5cc(Cl)cc(Cl)c5)CC4)CC3)nc2)cn1` [Compound 75]: the half-maximal inhibitory concentration (IC50) is 1.2 nM. Next, `C[C@@]1(Cc2ccc(C#N)cc2)C(=O)N(c2cc(Cl)cc(Cl)c2)c2ncc(C(=O)NC3(C(=O)NC4(c5ccc(-c6ccc(C(N)=O)cc6)cn5)CC4)CC3)n21` [Compound 131]: 0.99 nM; `Cc1nn(C)cc1-c1ccc(C(C)NC(=O)C(NC(=O)c2cnc3n2C(C)(Cc2ccc(C#N)cc2)C(=O)N3c2cc(Cl)c(F)c(Cl)c2)C(C)O)nc1` (centres unmarked) [Compound 121]: 1.1 nM; `C[C@@]1(Cc2ccc(C#N)cc2)C(=O)N(c2cc(Cl)c(F)c(Cl)c2)c2ncc(C(=O)NC3(C(=O)NC4(c5ccc(-c6ccc(S(C)(=O)=O)cc6)cn5)CC4)CC3)n21` [Compound 158]: 1.3 nM. Then `C[C@H](NC(=O)c1cnc2n1[C@](C)(Cc1ccc(C#N)cc1)C(=O)N2c1cc(Cl)c(F)c(Cl)c1)C(=O)NC1(c2ccc(-c3cnn(C)c3)cn2)CC1` [Compound 88], with 0.89 nM; and `C[C@@]1(Cc2ccc(C#N)cc2)C(=O)N(c2cc(Cl)c(F)c(Cl)c2)c2ncc(C(=O)NC3(C(=O)NC4(c5ccc(-c6ccc(O)cc6)cn5)CC4)CC3)n21` [Compound 2], with 1.1 nM. Then `Cn1cc(-c2ccc(C3(NC(=O)C4(NC(=O)c5cnc6n5[C@](C)(Cc5ccc(C#N)cc5)C(=O)N6c5cc(Cl)c(F)c(Cl)c5)CC4)CC3)nn2)c(C2CC2)n1` [Compound 15], with 1.6 nM; and `C[C@H](NC(=O)c1cnc2n1[C@](C)(Cc1ccc(C#N)cc1)C(=O)N2c1cc(Cl)c(F)c(Cl)c1)C(=O)NC1(c2ccc(-c3cn[nH]c3)cn2)CC1` [Compound 93], with 0.7 nM. As to `C[C@@]1(Cc2ccc(C#N)cc2)C(=O)N(c2cc(Cl)cc(Cl)c2)c2ncc(C(=O)NC3(C(=O)NC4(c5ccc(-c6ccc(Cl)nc6)cn5)CC4)CC3)n21` [Compound 61], the IC50 came out at 1 nM.

On to `Cn1ncc(-c2ccc(C3(NC(=O)C4(NC(=O)c5cnc6n5[C@](C)(Cc5ccc(C#N)cc5)C(=O)N6c5cc(Cl)c(F)c(Cl)c5)CC4)CC3)nc2)c1C1CC1` [Compound 13], for which the IC50 turned out to be 1.8 nM. In turn, `C[C@@]1(Cc2ccc(C#N)cc2)C(=O)N(c2cc(Cl)cc(Cl)c2)c2ncc(C(=O)NC3(C(=O)NC4(c5ccc(-c6cccc(CO)c6)cn5)CC4)CC3)n21` [Compound 143] showed a half-maximal inhibitory concentration (IC50) of 1.9 nM. Then `C[C@@]1(Cc2ccc(C#N)cc2)C(=O)N(c2cc(Cl)c(F)c(Cl)c2)c2ncc(C(=O)NC3(C(=O)NC4(c5ncc(-c6cn[nH]c6)cn5)CC4)CC3)n21` [Compound 33], with 0.57 nM; and `C[C@H](NC(=O)c1cnc2n1[C@](C)(Cc1ccc(C#N)cc1)C(=O)N2c1cc(Cl)c(F)c(Cl)c1)C(=O)NC1(c2ncc(-c3ccc(CO)nc3)cn2)CC1` [Compound 78], with 1.2 nM. Then `Cc1ccc(-c2ccc(C(C)NC(=O)C(NC(=O)c3cnc4n3C(C)(Cc3ccc(C#N)cc3)C(=O)N4c3cc(Cl)c(F)c(Cl)c3)C(C)O)nc2)cn1` (centres unmarked) [Compound 30], with 0.61 nM; and `C[C@@]1(Cc2ccc(C#N)cc2)C(=O)N(c2cc(Cl)cc(Cl)c2)c2ncc(C(=O)NC3(C(=O)NC4(c5ccc(-c6cccc(C(N)=O)c6)cn5)CC4)CC3)n21` [Compound 66], with 1.3 nM; and `C[C@@H](NC(=O)C1(NC(=O)c2cnc3n2[C@](C)(Cc2ccc(C#N)cc2)C(=O)N3c2cc(Cl)c(F)c(Cl)c2)CC1)c1ccc(-c2ccc(CO)nc2)nc1` [Compound 160], with 0.59 nM. Then `C[C@@]1(Cc2ccc(C#N)cc2)C(=O)N(c2cc(Cl)cc(Cl)c2)c2ncc(C(=O)NC3(C(=O)NC4(c5ccc(-c6cccc(S(N)(=O)=O)c6)cn5)CC4)CC3)n21` [Compound 138], with 0.64 nM; and `Cc1nn(C)cc1-c1ccc(C2(NC(=O)C3(NC(=O)c4cnc5n4[C@](C)(Cc4ccc(OC(F)(F)F)cc4)C(=O)N5c4cc(Cl)c(F)c(Cl)c4)CC3)CC2)cn1` [Compound 150], with 0.68 nM. Molecule `C[C@@H](NC(=O)[C@@H](NC(=O)c1cnc2n1[C@](C)(Cc1ccc(C#N)cc1)C(=O)N2c1cc(Cl)c(F)c(Cl)c1)[C@@H](C)O)c1ccc(-c2ccc(CO)nc2)cn1` [Compound 119] yielded an IC50 of 0.85 nM. Next, `Cn1cc(-c2ccc(C3(NC(=O)C4(NC(=O)c5cnc6n5[C@](C)(Cc5ccc(C#N)cc5)C(=O)N6c5cc(Cl)c(F)c(Cl)c5)CC4)CC3)nc2)c(C2CC2)n1` [Compound 14]: 1.1 nM; `C[C@H](NC(=O)c1cnc2n1[C@](C)(Cc1ccc(C#N)cc1)C(=O)N2c1cc(Cl)c(F)c(Cl)c1)C(=O)NC1(c2ccc(-c3ccc(CO)nc3)nc2)CC1` [Compound 90]: 0.28 nM. Then `Cn1cc(-c2cnc(C3(NC(=O)C4(NC(=O)c5cnc6n5[C@](C)(Cc5ccc(C#N)cc5)C(=O)N6c5cc(Cl)c(F)c(Cl)c5)CC4)CC3)nc2)cn1` [Compound 31], with 0.51 nM. Take `CC1(Cc2ccc(C#N)cc2)C(=O)N(c2cc(Cl)cc(Cl)c2)c2ncc(C(=O)NC3(C(=O)NC4(c5ccc(-c6cnoc6)cn5)CC4)CC3)n21` (centres unmarked) [Compound 127]: the concentration for half-maximal inhibition (IC50) was determined as 0.34 nM.
